Experimental data from US8569242B2, “Method of treating degenerative disorders of the nervous system” (The Regents of the University of California, priority 2005, dated 2013).

Legend:
[1] = test system: Akt; assay: Akt phosphorylation immunoblot in microglia; format: cell-based, mouse; details: for effect on fibrin-mediated phosphorylation of Akt: microglia on fibrinogen plus peptide; for effect on LPS-mediated phosphorylation of Akt: microglia with LPS plus peptide
Experimental: Immunoblots. Western blots were performed using standard protocols (55). Microglia were serum-starved overnight and plated on fibrinogen or with LPS for 6 hours. Lysates were electrophoresed on 4-12% gradient SDS-PAGE gels and probed with phospho and total Akt antibodies (1:1000, Cell Signaling, Beverly, Mass.). RhoA activation was performed as described (60). Briefly, 2×107 microglia were plated on fibrinogen for 6 hours or with LPS for 10 minutes. Cell lysates were incubated with GST-Rhotekin agarose beads (kindly provided by Dr. Joan Heller Brown, UCSD) for 45 minutes at 4° C. The beads were washed, resuspended in Laemmli sample buffer, and electophoresed on a 15% SDS-PAGE gel. Activated and total Rho were detected with mouse anti-RhoA (1:500, Santa Cruz Biotechnology, Santa Cruz, Calif.). Densitometry was performed using the NIH Scion Image software using three blots from three separate experiments.

[2] = test system: PLP139-151 EAE in SJL/J mice; assay: PLP139-151 EAE after vaccination with γ^377-395 peptide; format: in vivo, mouse
Experimental: Induction of EAE. EAE was induced in 6 week old female SJL/J or C57BL/6 mice by subcutaneous immunization with 150 μg PLP139-151 (HSLGKWLGHPDKF) (SEQ ID NO: 5). American Peptide Company and Azco Pharmchem, San Jose, Calif.) or 50 μg MOG35-55 ([…]) (SEQ ID NO: 6), Sigma-Aldrich, St. Louis, Mo.) in complete Freund's adjuvant (Sigma-Aldrich, St. Louis, Mo.) supplemented with […] heat inactivated mycobacterium tuberculosis H37Ra (Difco Laboratories, Detroit, Mich.). Mice were injected intravenously with 200 ng pertussis toxin (Sigma-Aldrich, St. Louis, Mo.) on days 0 and 2 of the immunization. Mice were scored daily. 0: no symptoms, 1: loss of tail tone, 2: ataxia, 3: hindlimb paralysis, 4: hindlimb and forelimb paralysis, 5: moribund Data are represented as the mean clinical score and are mean±SEM. Statistical calculations were made by using Student's t test.
Fibrinogen γ^377-395 peptide vaccination. Vaccination was performed as described (56) with the following modifications. Five week old female SJL/J mice were immunized with 200 μg fibrinogen γ^377-395 peptide (YSMKETTMKIIPFNRLSIG) (SEQ ID NO: 2), Azco Pharmchem, San Jose, Calif.) emulsified with an equal volume of incomplete freund's adjuvant (Sigma-Aldrich, St. Louis, Mo.). Mice were immunized four times in alternating rear flanks over the course of two weeks. Control animals were immunized with incomplete Freund's adjuvant.
Histopathology. Histopathologic analysis and quantification of inflammation and demyelination in mouse tissue was performed on cryostat or paraffin sections as described (57). Sections were stained with luxol fast blue and nuclear red. Spinal cord sections were fixed with 2% PFA for 10 minutes at 4° C. and immunostained with a sheep anti-fibrinogen antibody (1:200, US Biological, Swampscott, Mass.), rat anti-CD11b (1:5, Chemicon), von Willebrand Factor (1:1000, Dakocytomation, Glostrup, Denmark), iNOS (polyclonal Chemicon, Temecula, Calif., 1:750), Mac-3 (rat-anti-mouse, Pharmingen, San Diego, Calif., 1:200), CNPase (monoclonal, Sternberger monoclonals, Lutherville, Md., 1:2000). For human MS, paraffin embedded material was obtained from the Archives of the Center for Brain Research, Medical University of Vienna. Double immunofluorescence was performed with antibodies against CD68 and fibrin. Images were collected using an Axioplan 2 Zeiss microscope with an Axiocam HRc camera or were processed for confocal microscopy using Olympus and Zeiss confocal microscopes.
Rotarod behavior test. The rotarod assay was performed on a TSE accelerating Rotarod apparatus (TSE Technical and Scientific Equipment GmbH) as described (58). Rotarod assays were conducted with a 300 second maximum time limit and means were collected for at least three trials. Statistical calculations were made by using Students t test.

[3] = biological target: Mac-1 (Homo sapiens, UniProt P11215); details: from cited biochemical studies; cited from earlier work

Substance: tyr-ser-met-lys-lys-thr-thr-met-lys-ile-ile-pro-phe-asn-arg-leu-thr-ile-gly (YSMKKTTMKIIPFNRLTIG) (listed as Homo sapiens) [γ^377-395 peptide]
- effect on fibrin-mediated phosphorylation of Akt [1]: specifically inhibit
- effect on fibrin-mediated phosphorylation of Akt ([1]; listed as γ^377-395): blocks
- effect on LPS-mediated phosphorylation of Akt [1]: not LPS-mediated
- effect on LPS-mediated phosphorylation of Akt ([1]; listed as γ^377-395): unaffected
- vaccinated mice that developed EAE ([2]; 8/15, all control mice 15/15, 200 μg peptide in IFA four times before EAE induction): 53%
- rotarod: increase in motor strength and coordination vs control mice ([2]; vaccinated mice): 76%
- histopathology index, brain ([2]; vaccinated mice, control 2.3±1): 1.5±2
- histopathology index, spinal cord ([2]; vaccinated mice, control 12±5.2): 6.5±5.9
- average clinical score ([2]; vaccinated mice, control group 2.5, scale 0-5): 1.1
- blocking of fibrin(ogen) binding to Mac-1 (CD11b) [3]: blocks
